In the NIST ThermoML archive (doi:10.1021/je300217x):
± gives the expanded uncertainty stated by the source.

Settings: Liquid, Closed cell (Static) method

FC1(F)C(F)(F)C(F)(F)C1(F)F [octafluorocyclobutane]
Settings | vapor or sublimation pressure [kPa]
247.9 K | 39 ± 3
248.25 K | 41 ± 3
248.3 K | 40 ± 3
253.38 K | 51 ± 3
263 K | 81 ± 3
265.93 K | 92 ± 3
267.92 K | 99 ± 3
269.89 K | 110 ± 3
272.9 K | 122 ± 3
277.87 K | 148 ± 3
282.9 K | 180 ± 3
287.89 K | 216 ± 3
292.89 K | 257 ± 4
303.37 K | 362 ± 4
313.09 K | 486 ± 4
322.53 K | 635 ± 5
335.34 K | 889 ± 5
342.37 K | 1055 ± 6
352.36 K | 1329 ± 7

FC(F)=C(F)F [tetrafluoroethene]
Settings | vapor or sublimation pressure [kPa]
248.2 K | 864 ± 7
248.3 K | 866 ± 8
253.34 K | 1017 ± 8
263 K | 1357 ± 10
263.18 K | 1367 ± 9
273.14 K | 1804 ± 11
282.9 K | 2330 ± 12
283.19 K | 2340 ± 12
